How the values were obtained:
human orexin-1 receptor = target: T1, human orexin-1 receptor (Homo sapiens, UniProt O43613); test: Intracellular calcium measurements (FLIPR), orexin receptor antagonistic activity; assay type: cell-based; conditions: FLIPR2; CHO cells expressing human orexin-1 receptor; 3 nM orexin-A; read-out: OX1 IC50
T1 construct: expressed in transfected cells; host or cells: Chinese hamster ovary (CHO) cells, G418 selection
T1 sequence (O43613 1-425): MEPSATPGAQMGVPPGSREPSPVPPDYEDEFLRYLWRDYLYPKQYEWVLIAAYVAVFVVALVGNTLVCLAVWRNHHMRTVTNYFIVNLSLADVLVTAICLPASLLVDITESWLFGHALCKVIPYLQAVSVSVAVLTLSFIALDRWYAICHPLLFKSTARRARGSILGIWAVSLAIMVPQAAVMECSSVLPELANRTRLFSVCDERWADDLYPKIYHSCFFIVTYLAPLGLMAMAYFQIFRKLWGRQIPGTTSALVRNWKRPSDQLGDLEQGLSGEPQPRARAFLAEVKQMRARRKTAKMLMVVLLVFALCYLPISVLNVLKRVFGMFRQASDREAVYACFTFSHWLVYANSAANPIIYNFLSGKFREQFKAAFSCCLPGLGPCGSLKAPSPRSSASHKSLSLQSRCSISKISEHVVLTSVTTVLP
Protocol: (§1) The orexin receptor antagonistic activity of the compounds of formula (I) is determined in accordance with one of the following experimental methods.
(§2) Intracellular Calcium Measurements:
(§3) Chinese hamster ovary (CHO) cells expressing the human orexin-1 receptor and the human orexin-2 receptor, respectively, are grown in culture medium (Ham F-12 with L-Glutamine) containing 300 μg/ml G418, 100 U/ml penicillin, 100 μg/ml streptomycin and 10% heat inactivated fetal calf serum (FCS). The cells are seeded at 20'000 cells/well into 384-well black clear bottom sterile plates (Greiner). The seeded plates are incubated overnight at 37° C. in 5% CO2.
(§4) Human orexin-A as an agonist is prepared as 1 mM stock solution in MeOH:water (1:1), diluted in HBSS containing 0.1% bovine serum albumin (BSA), NaHCO3:0.375 g/l and 20 mM HEPES for use in the assay at a final concentration of 3 nM.
(§5) Antagonists are prepared as 10 mM stock solution in DMSO, then diluted in 384-well plates, first in DMSO, then in HBSS containing 0.1% bovine serum albumin (BSA), NaHCO3: 0.375 g/l and 20 mM HEPES.
(§6) On the day of the assay, 50 μl of staining buffer (HBSS containing 1% FCS, 20 mM HEPES, NaHCO3: 0.375 g/l, 5 mM probenecid (Sigma) and 3 μM of the fluorescent calcium indicator fluo-4 AM (1 mM stock solution in DMSO, containing 10% pluronic) is added to each well.
(§7) The 384-well cell-plates are incubated for 50 min at 37° C. in 5% CO2 followed by equilibration at RT for 30-120 min before measurement.
(§8) Within the Fluorescent Imaging Plate Reader (FLIPR2 or FLIPR Tetra, Molecular Devices), antagonists are added to the plate in a volume of 10 μl/well, incubated for 10 min and finally 10 μl/well of agonist is added. Fluorescence is measured for each well at 1 second intervals, and the height of each fluorescence peak is compared to the height of the fluorescence peak induced by 3 nM orexin-A with vehicle in place of antagonist. For each antagonist, the IC50 value (the concentration of compound needed to inhibit 50% of the agonistic response) is determined. With the FLIPR Tetra, non-optimized and optimized conditions were used. Optimized conditions were achieved by adjustment of pipetting speed and cell splitting regime. The calculated IC50 values of the compounds may fluctuate depending on the daily cellular assay performance. Fluctuations of this kind are known to those skilled in the art.

human orexin-2 receptor = target: T2, human orexin-2 receptor (Homo sapiens, UniProt O43614); test: as above; assay type: cell-based; conditions: FLIPR2; CHO cells expressing human orexin-2 receptor; 3 nM orexin-A; read-out: OX2 IC50
T2 construct: expressed in transfected cells; host or cells: Chinese hamster ovary (CHO) cells, G418 selection
T2 sequence (O43614 1-444): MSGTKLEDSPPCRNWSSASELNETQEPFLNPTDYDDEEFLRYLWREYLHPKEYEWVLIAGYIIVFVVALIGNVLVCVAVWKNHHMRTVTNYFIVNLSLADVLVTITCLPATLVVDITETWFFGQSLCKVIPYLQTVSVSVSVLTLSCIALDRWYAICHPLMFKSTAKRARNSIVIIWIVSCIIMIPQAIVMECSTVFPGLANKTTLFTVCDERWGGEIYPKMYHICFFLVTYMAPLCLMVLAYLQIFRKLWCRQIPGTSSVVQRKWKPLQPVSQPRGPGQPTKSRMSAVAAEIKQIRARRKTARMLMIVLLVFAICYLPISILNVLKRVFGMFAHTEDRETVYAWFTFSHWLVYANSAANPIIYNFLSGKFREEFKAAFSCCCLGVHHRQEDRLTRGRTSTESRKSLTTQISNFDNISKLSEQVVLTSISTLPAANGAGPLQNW
Protocol: as §1, §2, §3, §4, §5, §6, §7, §8

Row | IC50 (human orexin-1 receptor) | IC50 (human orexin-2 receptor) | SMILES
1 | 29 nM | 10 nM | CCn1nc(C)cc1C(=O)NC[C@@H]1[C@H]2C[C@H]2CN1C(=O)c1nc(C)sc1-c1cccc(Cl)c1 [Example 80, 2-Ethyl-5-methyl-2H-pyrazole-3-carboxylic Acid{(1S,2S,5R)-3-[5-(3-chloro-phenyl)-2-methyl-thiazole-4-carbonyl]-3-aza-bicyclo[3.1.0]hex-2-ylmethyl}-amide]
2 | 115 nM | 12 nM | Nc1nc(C(=O)N2C[C@@H]3C[C@@H]3[C@H]2CNC(=O)c2nccc3ccccc23)c(-c2cccc(F)c2)s1 [Example 112, Isoquinoline-1-carboxylic Acid{(1S,2S,5R)-3-[2-amino-5-(3-fluoro-phenyl)-thiazole-4-carbonyl]-3-aza-bicyclo[3.1.0]hex-2-ylmethyl}-amide]
3 | 178 nM | 48 nM | Cn1cc(C(=O)NC[C@@H]2[C@H]3C[C@H]3CN2C(=O)c2nc(N)sc2-c2cccc(F)c2)c2ccccc21 [Example 115, 1-Methyl-1H-indole-3-carboxylic Acid{(1S,2S,5R)-3-[2-amino-5-(3-fluoro-phenyl)-thiazole-4-carbonyl]-3-aza-bicyclo[3.1.0]hex-2-ylmethyl}-amide]
4 | 80 nM | 8 nM | Cn1nc(C(=O)NC[C@@H]2[C@H]3C[C@H]3CN2C(=O)c2nc(N)sc2-c2cccc(F)c2)c2ccccc21 [Example 117, 1-Methyl-1H-indazole-3-carboxylic Acid{(1S,2S,5R)-3-[2-amino-5-(3-fluoro-phenyl)-thiazole-4-carbonyl]-3-aza-bicyclo[3.1.0]hex-2-ylmethyl}-amide]
5 | 225 nM | 41 nM | Nc1nc(C(=O)N2C[C@@H]3C[C@@H]3[C@H]2CNC(=O)c2cnc3ccccn23)c(-c2cccc(F)c2)s1 [Example 118, Imidazo[1,2-a]pyridine-3-carboxylic Acid{(1S,2S,5R)-3-[2-amino-5-(3-fluoro-phenyl)-thiazole-4-carbonyl]-3-aza-bicyclo[3.1.0]hex-2-ylmethyl}-amide]
6 | 7030 nM | 12 nM | Cc1c(C(=O)NC[C@@H]2[C@H]3C[C@H]3CN2C(=O)c2nc(N)sc2-c2cccc(F)c2)sc2nccn12 [Example 124, 3-Methyl-imidazo[2,1-b]thiazole-2-carboxylic Acid{(1S,2S,5R)-3-[2-amino-5-(3-fluoro-phenyl)-thiazole-4-carbonyl]-3-aza-bicyclo[3.1.0]hex-2-ylmethyl}-amide]
7 | 324 nM | 26 nM | Cc1cc(C)cc(C(=O)NC[C@@H]2[C@H]3C[C@H]3CN2C(=O)c2nc(C)sc2-c2cccc(C)c2)c1 [Example 147, 3,5-Dimethyl-N-[(1S,2S,5R)-3-(2-methyl-5-m-tolyl-thiazole-4-carbonyl)-3-aza-bicyclo[3.1.0]hex-2-ylmethyl]-benzamide]
8 | 1080 nM | 102 nM | Cc1cccc(-c2sc(C)nc2C(=O)N2C[C@@H]3C[C@@H]3[C@H]2CNC(=O)c2cc(Br)ccc2Cl)c1 [Example 148, 5-Bromo-2-chloro-N-[(1S,2S,5R)-3-(2-methyl-5-m-tolyl-thiazole-4-carbonyl)-3-aza-bicyclo[3.1.0]hex-2-ylmethyl]-benzamide]
9 | > 10000 nM | 61 nM | Cc1cccc(-c2sc(C)nc2C(=O)N2C[C@@H]3C[C@@H]3[C@H]2CNC(=O)c2cccc3c2OCC(=O)N3)c1 [Example 169, 3-Oxo-3,4-dihydro-2H-benzo[1,4]oxazine-8-carboxylic Acid[(1S,2S,5R)-3-(2-methyl-5-m-tolyl-thiazole-4-carbonyl)-3-aza-bicyclo[3.1.0]hex-2-ylmethyl]-amide]
10 | 691 nM | 88 nM | Cc1cccc(-c2sc(C)nc2C(=O)N2C[C@@H]3C[C@@H]3[C@H]2CNC(=O)c2cccc3c2N(C)CCO3)c1 [Example 177, 4-Methyl-3,4-dihydro-2H-benzo[1,4]oxazine-5-carboxylic Acid[(1S,2S,5R)-3-(2-methyl-5-m-tolyl-thiazole-4-carbonyl)-3-aza-bicyclo[3.1.0]hex-2-ylmethyl]-amide]

Reference: patent publication US8063099B2, “Trans-3-aza-bicyclo[3.1.0]hexane derivatives” (Actelion Pharmaceuticals Ltd., priority 2007, dated 2011)
